The source of these data is patent US20030092692A1, “Cytoprotective steroids (II)” (priority 2000, published 2003).

The test system of one test is NMDA receptors. The note with it: cited from earlier work.
The subject of the next test is estrogenic activity. The note with it: cited from earlier work.
In a further test the test system is Rat cortical neurons. Kind of test: Glutamate induced neuronal cell death of primary cortical cultures (LDH release). It counts as cell-based, Wistar rat. The note with it: for effect on normal cell death: without glutamate. How it is done:
Rat cortical neurons were cultured by modification of the methods of Dichter (1973) Brain Res 149, p279-293 and Durkin et al (1996) J. Neurochem 66, p951-962. A female Wistar rat (Janvier, Le Genest-St-Isle, France: ref RJ WAF151) of 17 days gestation was killed by cervical disclocation, the foetuses removed on embryonoic day 17 and brains removed and placed in ice-cold calcium/magnesium free Hanks balanced salt solution (HBSS: Gibco Life Technologies, Cergy-Pontoise, France: ref 14170-088 batch 302790). Each cortex was dissected and meninges were carefully removed.
The cortical neurons were dissociated by trypsinization for 5 minutes at 37° C. (trypsin: 0.5 mg/ml: Difco, LPCR, Strasbourg: ref 0152-14 batch 128856JC) and the reaction stopped by addition of HBSS containing calcium and magnesium (HBSS+ Gibco ref 24020-091; batch 3010598) with 10% of fetal bovine serum FBS; Gibco; ref 1027-098; batch 40Q1681K and 1 mg/ml DNase I (Boehringer Mannheim, Meylan, France; ref 1284938; batch 14880300).
The suspension was triturated with a 10 ml pipette (stripette Costar, Dutscher, Brumath, France) and was added in a centrifuge tube (Tube 50 ml Corning, Dutscher) containing 20 ml HBSS^− with 3.5% of BSA (Sigma, L'Isle D'Abeau Chesnes, ref. A6003, batch 29H7606) and centrifuged at low speed (150×g) for 10 min (apparatus Sigma 2-15, Bioblock, Illkirch, France).
The cells were resuspended in Dulbecco's Modified Eagle Medium (DMEM; Gibco; ref. 41965-039; batch 3032129), containing 20% FBS. Viable cells were quantified and plated at 35,000/well in 96 well plates (Nunclon, Gibco) previously coated with poly-L-lysine (0.01 mg/ml, France; ref. P5899; batch 28H8504). Cells were allowed to adhere 2 h and maintained in a humidified incubator at 37° C. in 5% CO2-95% air atmosphere.
Culture medium was then changed to a medium consisting of DMEM, 10% heat-inactivated FBS, 10% heat-inactived horse serum (Gibco, ref. 16505-080; batch 3030347) and 1% L-Glutamine (Gibco, ref. 25030-024; batch 3031499).
Since the cultures were mixed populations containing both neurons and glial cells, to minimize glial growth, the cultures were treated for 2 days with 15 μg/ml of 5-fluoro-2′-deoxyuridine (Sigma; ref. F8791; batch 97H4048) and 35 μg/ml of uridine (Sigma, ref. U3003; batch 18H11965) on day 4 of culture.
Following exposure to mitotic inhibitors, one-half of the medium was removed and replaced with growth medium consisting of 89% DMEM, 10% horse serum and 1% L-glutamine.
Glutamate toxicity experiments were performed after 13 days in culture (Glutamic acid; Sigma, ref. G6904; batch 18H11381).
On day 12, twenty-four hours before glutamate exposure, cultures were washed with DMEM and placed in medium DMEM/Ham12 with supplements but without estradiol.
The reference compounds, estradiol (Sigma, ref. E8875; batch 98H40953) and DHEA (Sigma, ref. D4000; batch 97H0301), and test compound were added at concentrations of 2, 10, 50 and 100 nM. Human FGF-basic (Tebu, Le Perray-en-Yvelines, France; ref. 100-18B; batch 107R0806 E118) was included as an additional reference and was tested at 5, 10 and 20 ng/ml. All compounds were dissolved at 10 mM in ethanol 100% (LPCR, ref. 20821467; batch J109), diluted 10,000 fold in DMEM and stocked at −20° C.
The effect of the test molecule on survival of cultured neurones was investigated alone and in intoxication conditions. The effect of the ethanol was also tested at the highest concentration used for dilution of the test molecules (100 nM=0.001% ethanol).
On day 13, cultures were exposed to glutamate 0.50, 100, 150, 200, 250, 300, 400 and 500 μM for 10 min at 37° C. in DMEM/hamF12 with supplement. The effects of the 2 reference compounds and the test compound was investigated in the presence of glutamate.
After the incubation period, the cultures were washed with DMEM and placed in DMEM/Ham12 with supplement either in the absence or presence of the compound to evaluate their post intoxication effects. […]
In general terms: LDH leaks from cells whose membrane has failed.

The test system of test [1] is CA1 pyramidal cell layer of organotypic hippocampal slice cultures. Kind of test: Hypoxic challenge of organotypic hippocampal slice cultures (PI fluorescence). It counts as cell-based, Wistar rat. Conditions: 180 min hypoxia, 24 h recovery, hypoxia control 27.6±3.7%. How it is done:
Organotypic hippocampal slice cultures were prepared using the basic method of Pringle et al (1997) modified as follows:
Wistar rat pups (8-11 days old) were decapitated and the hippocampus rapidly dissected into ice-cold Goy's balanced salt solution supplemented with 4.5 mg/ml glucose. Slices were separated and plated into Millicell CM culture inserts (4 per well) and maintained at 37° C./5% CO2 for 14 days. Maintenance medium consisted of 25% heat-inactivated horse serum, 25% Hank's balanced salt solution (HBSS) and 50% minimum essential medium with added Earle's salts (MEM) supplemented with 1 mM glutamine and 4.5 mg/ml glucose.
Experimental hypoxia was performed as described previously (Pringle et al., (1996) Stroke 27, p2124-2130, (1997) Brain Research 755-46). Briefly, cultures were transferred to serum free medium (SFM—75% MEM, 25% HBSS supplemented with 1 mM glutamine and 4.5 mg/ml glucose) containing 5 μg/ml of the fluorescent exclusion dye propidium iodide (PI). Cultures were allowed to equilibrate in SFM for 60 minutes prior to imaging. PI fluorescence was detected using a standard Leica inverted microscope fitted with a rhodamine filter set (Leica N2). Any cultures in which PI fluorescence was detected at this stage were excluded from further study. Hypoxia was induced by transferring cultures to SFM (+PI) which had been saturated with 95% N2/5% CO2. Culture plates (without lids) were then sealed into an airtight chamber in which the atmosphere was saturated with 95% N2/5% CO2 by continuously blowing through gas at 1000 ml/min for ten minutes before being sealed and placed in the incubator for 170 mins (total time of hypoxia was therefore 180 mins). At the end of the hypoxia period cultures were returned to normoxic SFM containing PI and placed back in the incubator for 24 hours.
Neuronal damage was assessed as described previously (Pringle et al., 1996, 1997) using NIH Image 1.60 running on an Apple IIsi computer. Images were captured using a COHU monochrome camera and saved onto optical disk for offline analysis using NIH image. Light transmission images were captured prior to the addition of drugs, and PI fluorescence images recorded at the end of the 24 hour post-hypoxia recovery period. The areas of the CA1, CA3 and dentate gyrus (DG) cell layers were determined from the transmission image. The area of PI fluorescence in each of the cell layers was measured using the density slice function within NIH Image, and neuronal damage expressed as the percentage of the regional area in which PI fluorescence was detected above background.
Steroid compounds were prepared by making an initial 1 mg/ml solution in ethanol and further diluting down in SFM. Compounds were included in the cultures for 45 minutes prior to hypoxia, during the hypoxic episode and during the post-hypoxic recovery period. Control experiments consisted of cultures treated with vehicle alone.

For 3α-hydroxy-5β-pregnan-20-one sulphate, in the test with NMDA receptors, the “decrease of NMDA response” value is given as 76%.

In the case of `CC12CCC3c4ccc(O)cc4CC(=O)C3C1CCC2O` (stereo not shown) [7-keto-estradiol], the “estrogenic activity as fraction of that of estrone” value in the test with estrogenic activity is 1/300.

As for `CC(=O)[C@H]1CC[C@H]2[C@@H]3C(=O)C=C4C[C@@H](OS(=O)(=O)O)CC[C@]4(C)[C@H]3CC[C@]12C` [7-keto-pregnenolone sulphate], the “decrease of NMDA response” value in the test with NMDA receptors was 12%.

As to `C[C@]12CC[C@H](O)CC1=C[C@@H](O)[C@@H]1[C@@H]2CC[C@]2(C)C(=O)CC[C@@H]12` [7α-hydroxy-DHEA], the “effect on normal cell death” value in the test on Rat cortical neurons (10 nM) is on record as “significantly decreased normal cell death”. Moreover, in test [1] (10 nM), the “neuronal damage: PI fluorescence as % of CA1” value (“neuronal damage … as % of CA1” for short) was 1.1±0.9%. Moreover, in test [1] (concentration not given), the “neuronal death in CA1” value worked out at 4.3±1.3%.

As to `C[C@]12CC[C@@H]3c4ccc(O)cc4C[C@@H](O)[C@H]3[C@@H]1CC[C@@H]2O` [7α-hydroxy-estradiol, Estra-1,3,5(10)-triene 3,7α,17β-triol], the “estrogenic activity as fraction of that of estrone” value in the test with estrogenic activity is recorded as 1/300. Besides, the entries for the “neuronal damage … as % of CA1” value in test [1] (1 nM), in test [1] (10 nM) and in test [1] (100 nM) were 21.5±11.3%, 13.0±4.7% and 5.9±2.1%, respectively.

For the compound `CC(=O)[C@H]1CC[C@H]2[C@@H]3[C@H](O)C=C4C[C@@H](O)CC[C@]4(C)[C@H]3CC[C@]12C` [7α-hydroxy-pregnenolone], in the test with Rat cortical neurons (10 nM, glutamate 200 μM), the “less cell death in presence of glutamate” value is “up to 10%”. In addition, in test [1] (100 nM), the “neuronal damage … as % of CA1” value was 11.6±4.0%.

Turning to `C[C@]12CC[C@H](O)CC1=CC[C@@H]1[C@@H]2CC[C@]2(C)C(=O)CC[C@@H]12` [DHEA], the “effect on normal cell death” value with Rat cortical neurons (10 nM) and with Rat cortical neurons (50 nM) was “protect significantly” in each case. In addition, the “protection of cortical neurones from glutamate neurotoxicity” value in the test on Rat cortical neurons (doses of 0, 50 and 100 nM, glutamate 200 μM) was “failing to protect”.

In the case of `C[C@]12CC[C@@H]3c4ccc(O)cc4CC[C@H]3[C@@H]1CC[C@@H]2O` [estradiol], in the test on Rat cortical neurons (primary cortical neurones), the “effect on cell death in glutamate toxicity assay (FIG. 3)” value was “no effect”.
